Structures are written as SMILES.

We go through one molecule from article PMC10682503, “Structural and functional basis of inositol hexaphosphate stimulation of NHEJ through stabilization of Ku-XLF interaction” (Nucleic Acids Research, 2023).

This assay has as its target T1, KuFL (Homo sapiens, UniProt P12956+P13010).
T1 construct: The full-length human Ku heterodimer subunits (Ku70 1–609, Ku80 1–732); 10x His-tag with TEV site (N); made in house; host or cells: Sf21 insect cells (baculovirus, MultiBac)
Put plainly: nanoDSF thermal stability of KuFL. Particulars: in the absence of DNA, increasing IP6 concentrations. The procedure:
nano-Differential Scanning Fluorimetry. nanoDSF measurements were performed on a Tycho NT.6 device (NanoTemper) with KuFL dialyzed against buffer 20 mM Tris HCl pH 8, 150 mM NaCl, 5 mM β-mercaptoethanol. We used 9 µL of KuFL at 5 µM in absence or presence of DNA at 7.5 µM to obtain a (1:1.5) molar ratio. Measurements were performed in presence of IP6 concentrations ranging from 0 to 10 µM. Stocks solutions of IP6 and analogues are prepared so that 1 µL of IPs solutions are used in the 10 µL capillary for all concentrations tested. Each point corresponds to an average of three measurements. The temperature of transition that corresponds to the change of environment of the tryptophan is deduced from the first inflexion point of the 330 nm/350 nm ratio versus temperature.

T1 sequence (P12956 whole entry): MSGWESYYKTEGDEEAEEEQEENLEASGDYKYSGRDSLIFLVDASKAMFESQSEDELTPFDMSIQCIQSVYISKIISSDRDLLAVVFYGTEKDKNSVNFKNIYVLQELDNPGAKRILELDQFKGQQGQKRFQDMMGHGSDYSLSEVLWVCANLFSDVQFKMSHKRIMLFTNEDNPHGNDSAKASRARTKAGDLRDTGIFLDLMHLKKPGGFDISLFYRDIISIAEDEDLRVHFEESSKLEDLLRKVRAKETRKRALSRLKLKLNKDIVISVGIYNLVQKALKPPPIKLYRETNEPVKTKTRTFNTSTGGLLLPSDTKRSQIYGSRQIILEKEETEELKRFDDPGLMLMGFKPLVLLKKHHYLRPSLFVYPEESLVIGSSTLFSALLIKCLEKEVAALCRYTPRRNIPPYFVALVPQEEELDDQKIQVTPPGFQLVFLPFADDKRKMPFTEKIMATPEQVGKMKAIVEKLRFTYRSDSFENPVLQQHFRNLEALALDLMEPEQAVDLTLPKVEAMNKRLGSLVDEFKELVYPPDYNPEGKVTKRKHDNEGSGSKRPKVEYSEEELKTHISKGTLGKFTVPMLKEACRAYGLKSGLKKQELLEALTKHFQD
T1 sequence (P13010 whole entry): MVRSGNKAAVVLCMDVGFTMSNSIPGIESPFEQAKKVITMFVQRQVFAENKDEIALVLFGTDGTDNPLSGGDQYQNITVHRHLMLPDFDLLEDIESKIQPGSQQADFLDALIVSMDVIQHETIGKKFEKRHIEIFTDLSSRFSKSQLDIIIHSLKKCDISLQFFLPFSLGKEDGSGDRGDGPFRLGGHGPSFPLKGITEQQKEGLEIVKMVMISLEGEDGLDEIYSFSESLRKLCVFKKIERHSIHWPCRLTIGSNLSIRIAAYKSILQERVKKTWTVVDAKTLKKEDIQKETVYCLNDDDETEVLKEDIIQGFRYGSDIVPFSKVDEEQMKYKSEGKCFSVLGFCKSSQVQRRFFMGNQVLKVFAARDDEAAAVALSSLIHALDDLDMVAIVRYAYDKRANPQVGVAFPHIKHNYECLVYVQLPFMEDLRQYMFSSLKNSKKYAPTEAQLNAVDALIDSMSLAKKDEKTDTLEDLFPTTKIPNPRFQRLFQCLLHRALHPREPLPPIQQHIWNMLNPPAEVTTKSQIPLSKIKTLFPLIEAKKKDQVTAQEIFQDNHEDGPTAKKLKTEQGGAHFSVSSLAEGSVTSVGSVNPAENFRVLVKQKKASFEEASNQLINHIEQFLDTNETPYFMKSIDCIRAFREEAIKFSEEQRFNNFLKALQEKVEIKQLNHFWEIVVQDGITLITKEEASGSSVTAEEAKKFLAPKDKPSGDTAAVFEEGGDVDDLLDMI

For `O=P(O)(O)O[C@H]1[C@H](OP(=O)(O)O)[C@@H](OP(=O)(O)O)[C@H](OP(=O)(O)O)[C@@H](OP(=O)(O)O)[C@H]1OP(=O)(O)O` [IP6, inositol hexaphosphate], the “effect on Ku thermal stability” value is given as “no significant effect”.
